Patent US11981686B2, “Urea compound having substituent” (DAIICHI SANKYO COMPANY, LIMITED, priority 2019, dated 2024)

target: SIRT6 enzyme (Homo sapiens, UniProt Q8N6T7); assay: Measurement of deacetylation activity (SIRT6, AlphaLISA, H3K9(Ac) peptide); format: biochemical; settings: SIRT6 25 ng/mL, H3K9(Ac) biotin peptide 2 nM, NAD 10 μM, room temperature 30 minutes, duplicate
Method in brief: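 SIRT6 (25 ng/mL final) in Tris-HCl pH 8.0 buffer with compound (e.g. 0.046–100 μM final) reacted with biotin-H3K9(Ac) peptide (2 nM) and NAD+ (10 μM), 30 min, room temperature. Stopped with nicotinamide plus AlphaLISA anti-unmodified H3K9/K27 beads, 60 min; EC150 (150% relative activity) from sigmoidal fit.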

SIRT6 enzyme, sequence (Q8N6T7 whole entry, species assumed): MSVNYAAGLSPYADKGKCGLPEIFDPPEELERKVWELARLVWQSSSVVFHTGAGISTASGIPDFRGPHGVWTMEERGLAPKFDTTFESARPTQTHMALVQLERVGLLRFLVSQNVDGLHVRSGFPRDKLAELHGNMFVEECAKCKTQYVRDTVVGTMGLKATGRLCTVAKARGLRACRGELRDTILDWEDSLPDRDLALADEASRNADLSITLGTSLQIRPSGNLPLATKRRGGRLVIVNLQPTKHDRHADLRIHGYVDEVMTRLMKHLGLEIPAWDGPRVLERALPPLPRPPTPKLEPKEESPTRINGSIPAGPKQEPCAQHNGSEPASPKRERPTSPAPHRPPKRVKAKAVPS

Structure (SMILES)	EC150 (the concentration of the compound showing a relative enzyme activity of 150%)
COc1cccc(-c2cc(N3[C@@H]4COC[C@H]3c3sc(NC(=O)N[C@@H]5CCOC5)nc3C4)no2)c1 [Example 164, N-{(4S,8S)-10-[5-(3-methoxyphenyl)-1,2-oxazol-3-yl]-4,7,8,9-tetrahydro-5H-4,8-epiminooxocino[5,4-d][1,3]thiazol-2-yl}-N′-[(3R)-oxolan-3-yl]urea]	2.6 μm
C[C@H](CO)NC(=O)Nc1nc2c(s1)[C@@H]1COC[C@H](C2)N1c1nc2cc(Cl)ccc2o1 [Example 59, N-[(4S,8S)-10-(5-chloro-1,3-benzoxazol-2-yl)-4,7,8,9-tetrahydro-5H-4,8-epiminooxocino[5,4-d][1,3]thiazol-2-yl]-N′-[(2R)-1-hydroxypropan-2-yl]urea]	0.44 μm
CNC(=O)Nc1nc2c(s1)[C@@H]1CCC[C@H](C2)N1c1nc(-c2ccc(F)cc2)no1 (relative stereo) [Example 12, N-{(5R*,9S*)-10-[3-(4-fluorophenyl)-1,2,4-oxadiazol-5-yl]-4,5,6,7,8,9-hexahydro-5,9-epiminocycloocta[d][1,3]thiazol-2-yl}-N′-methylurea]	1.4 μm
CC(C)(O)CNC(=O)Nc1nc2c(s1)CN(c1nc(C3CCC(F)(F)C3)no1)CC2 (stereo not drawn) [Example 94, N-{5-[3-(3,3-difluorocyclopentyl)-1,2,4-oxadiazol-5-yl]-4,5,6,7-tetrahydro[1,3]thiazolo[5,4-c]pyridin-2-yl}-N′-(2-hydroxy-2-methylpropyl)urea]	1.6 μm
O=C(Nc1nc2c(s1)[C@@H]1COC[C@H](C2)N1c1nc2cc(OC(F)(F)F)ccc2o1)N[C@H]1C[C@H](O)C1 [Example 54, N-[(1r,3S)-3-hydroxycyclobutyl]-N′-[(4S,8S)-10-(5-trifluoromethoxy-1,3-benzoxazol-2-yl)-4,7,8,9-tetrahydro-5H-4,8-epiminooxocino[5,4-d][1,3]thiazol-2-yl]urea]	0.48 μm
CNC(=O)Nc1nc2c(s1)CN(c1nnc(-c3ccc(F)c(C)c3)o1)CC2 [Example 9, N-{5-[5-(4-fluoro-3-methylphenyl)-1,3,4-oxadiazol-2-yl]-4,5,6,7-tetrahydro[1,3]thiazolo[5,4-c]pyridin-2-yl}-N′-methylurea]	1.2 μm
O=C(NCc1ccc[nH]c1=O)Nc1nc2c(s1)CN(c1nc(C3CCC(F)(F)CC3)no1)CC2 [Example 103, N-{5-[3-(4,4-difluorocyclohexyl)-1,2,4-oxadiazol-5-yl]-4,5,6,7-tetrahydro[1,3]thiazolo[5,4-c]pyridin-2-yl}-N′-[(2-oxo-1,2-dihydropyridin-3-yl)methyl]urea]	1.8 μm
CC(C)(CO)NC(=O)Nc1nc2c(s1)[C@@H]1COC[C@H](C2)N1c1ncc(-c2cccc(OC(F)F)c2)o1 [Example 170, N-[(4S,8S)-10-{5-[3-(difluoromethoxy)phenyl]-1,3-oxazol-2-yl}-4,7,8,9-tetrahydro-5H-4,8-epiminooxocino[5,4-d][1,3]thiazol-2-yl]-N′-(1-hydroxy-2-methylpropan-2-yl)urea]	1.2 μm
CNC(=O)Nc1nc2c(s1)[C@H]1CN(CCO)C[C@@H](C2)N1c1nc(-c2ccc(F)cc2)no1 [Example 127, N-[(4R,8R)-10-[3-(4-fluorophenyl)-1,2,4-oxadiazol-5-yl]-6-(2-hydroxyethyl)-4,5,6,7,8,9-hexahydro-4,8-epimino[1,3]thiazolo[5,4-d]azocin-2-yl]-N′-methylurea]	2.1 μm
CCOc1cccc(-c2cnc(N3[C@@H]4COC[C@H]3c3sc(NC(=O)N[C@H]5C[C@H](O)C5)nc3C4)o2)n1 [Example 80, N-{(4S,8S)-10-[5-(6-ethoxypyridin-2-yl)-1,3-oxazol-2-yl]-4,7,8,9-tetrahydro-5H-4,8-epiminooxocino[5,4-d][1,3]thiazol-2-yl}-N′-[(1r,3S)-3-hydroxycyclobutyl]urea]	0.48 μm
CC(C)(CO)NC(=O)Nc1nc2c(s1)[C@@H]1COC[C@H](C2)N1c1ncc(-c2cccc(C(F)F)c2)o1 [Example 69, N-[(4S,8S)-10-{5-[3-(difluoromethyl)phenyl]-1,3-oxazol-2-yl}-4,7,8,9-tetrahydro-5H-4,8-epiminooxocino[5,4-d][1,3]thiazol-2-yl]-N′-(1-hydroxy-2-methylpropan-2-yl)urea]	0.59 μm
O=C(Nc1nc2c(s1)CN(c1nc(C3CCC(F)(F)CC3)no1)CC2)N[C@@H]1CCC[C@H]1O [Example 25, N-{5-[3-(4,4-difluorocyclohexyl)-1,2,4-oxadiazol-5-yl]-4,5,6,7-tetrahydro[1,3]thiazolo[5,4-c]pyridin-2-yl}-N′-[(1R,2R)-2-hydroxycyclopentyl]urea]	0.81 μm
CNC(=O)Nc1nc2c(s1)CN(c1nc(C34CCC(F)(CC3)C4)no1)CC2 [Example 93, N-{5-[3-(4-fluorobicyclo[2.2.1]heptan-1-yl)-1,2,4-oxadiazol-5-yl]-4,5,6,7-tetrahydro[1,3]thiazolo[5,4-c]pyridin-2-yl}-N′-methylurea]	0.7 μm
COc1cccc(-c2noc(N3CCc4nc(NC(=O)NC5CCOCC5)sc4C3)n2)c1 [Example 108, N-{5-[3-(3-methoxyphenyl)-1,2,4-oxadiazol-5-yl]-4,5,6,7-tetrahydro[1,3]thiazolo[5,4-c]pyridin-2-yl}-N′-oxan-4-ylurea]	2.4 μm
CC(=O)N1CC(NC(=O)Nc2nc3c(s2)[C@@H]2COC[C@H](C3)N2c2ncc(-c3cccc(OC(F)F)n3)o2)C1 [Example 183, N-(1-acetylazetidin-3-yl)-N′-[(4S,8S)-10-{5-[6-(difluoromethoxy)pyridin-2-yl]-1,3-oxazol-2-yl}-4,7,8,9-tetrahydro-5H-4,8-epiminooxocino[5,4-d][1,3]thiazol-2-yl]urea]	0.24 μm
CN(C)c1ccc2oc(N3[C@@H]4COC[C@H]3c3sc(NC(=O)NCC(C)(C)O)nc3C4)nc2c1 [Example 41, N-{(4S,8S)-10-[5-(dimethylamino)-1,3-benzoxazol-2-yl]-4,7,8,9-tetrahydro-5H-4,8-epiminooxocino[5,4-d][1,3]thiazol-2-yl}-N′-(2-hydroxy-2-methylpropyl)urea]	2.5 μm
COc1ccc2oc(N3[C@@H]4COC[C@H]3c3sc(NC(=O)NC(C)(C)CO)nc3C4)nc2c1 [Example 58, N-(1-hydroxy-2-methylpropan-2-yl)-N′-[(4S,8S)-10-(5-methoxy-1,3-benzoxazol-2-yl)-4,7,8,9-tetrahydro-5H-4,8-epiminooxocino[5,4-d][1,3]thiazol-2-yl]urea]	2.4 μm
CNC(=O)Nc1nc2c(s1)C1CN(C(=O)OC)CC(C2)N1c1nc(C2CCC(F)(F)CC2)no1 (stereo not drawn) [Example 132, Methyl 10-[3-(4,4-difluorocyclohexyl)-1,2,4-oxadiazol-5-yl]-2-[(methylcarbamoyl)amino]-4,7,8,9-tetrahydro-4,8-epimino[1,3]thiazolo[5,4-d]azocine-6(5H)-carboxylate]	0.39 μm
CC(C)(CO)NC(=O)Nc1nc2c(s1)[C@@H]1COC[C@H](C2)N1c1nc(-c2ccc(F)cc2)no1 [Example 90, N-{(4S,8S)-10-[3-(4-fluorophenyl)-1,2,4-oxadiazol-5-yl]-4,7,8,9-tetrahydro-5H-4,8-epiminooxocino[5,4-d][1,3]thiazol-2-yl}-N′-(1-hydroxy-2-methylpropan-2-yl)urea]	2.5 μm
C[C@H](CO)NC(=O)Nc1nc2c(s1)[C@@H]1COC[C@H](C2)N1c1ncc(-c2cccc(C(F)F)c2)o1 [Example 71, N-[(4S,8S)-10-{5-[3-(difluoromethyl)phenyl]-1,3-oxazol-2-yl}-4,7,8,9-tetrahydro-5H-4,8-epiminooxocino[5,4-d][1,3]thiazol-2-yl]-N′-[(2R)-1-hydroxypropan-2-yl]urea]	0.34 μm
CC(C)(O)CNC(=O)Nc1nc2c(s1)[C@@H]1COC[C@H](C2)N1c1nc2cc(C#N)c(F)cc2o1 [Example 55, N-[(4S,8S)-10-(5-cyano-6-fluoro-1,3-benzoxazol-2-yl)-4,7,8,9-tetrahydro-5H-4,8-epiminooxocino[5,4-d][1,3]thiazol-2-yl]-N′-(2-hydroxy-2-methylpropyl)urea]	2.3 μm
CC(C)(O)CNC(=O)Nc1nc2c(s1)[C@@H]1COC[C@H](C2)N1c1nc2cc(C(F)(F)F)ccc2o1 [Example 144, N-(2-hydroxy-2-methylpropyl)-N′-{(4S,8S)-10-[5-(trifluoromethyl)-1,3-benzoxazol-2-yl]-4,7,8,9-tetrahydro-5H-4,8-epiminooxocino[5,4-d][1,3]thiazol-2-yl}urea]	0.61 μm
COC(=O)N1C[C@H]2Cc3nc(NC(=O)NCC(C)(C)O)sc3[C@@H](C1)N2c1nc(C2(C(F)(F)F)CC2)no1 (relative stereo) [Example 33, Methyl (4R*,8R*)-2-{[(2-hydroxy-2-methylpropyl)carbamoyl]amino}-10-{3-[1-(trifluoromethyl)cyclopropyl]-1,2,4-oxadiazol-5-yl}-4,7,8,9-tetrahydro-4,8-epimino[1,3]thiazolo[5,4-d]azocine-6(5H)-carboxylate]	1.6 μm
CNC(=O)Nc1nc2c(s1)[C@@H]1COC[C@H](C2)N1c1nnc(-c2cccc(OC(C)C)c2)o1 [Example 122, N-methyl-N′-[(4S,8S)-10-(5-{3-[(propan-2-yl)oxy]phenyl}-1,3,4-oxadiazol-2-yl)-4,7,8,9-tetrahydro-5H-4,8-epiminooxocino[5,4-d][1,3]thiazol-2-yl]urea]	1.5 μm
